Source: the OPERA property sets (Mansouri et al. 2018)

| Compound | melting point | boiling point | log10 Henry constant (atm·m³/mol) | log10 vapour pressure (mmHg) | ready biodegradability | log10 Koc (L/kg) | logP |
| --- | --- | --- | --- | --- | --- | --- | --- |
| O=[N+]([O-])c1ccc(NS(=O)(=O)c2ccc(Cl)c(C(F)(F)F)c2)c(Cl)c1 | 170 °C | – | – | – | – | – | – |
| C[C@]12CC[C@H]3[C@@H](CCC4=CC(=O)CC[C@@]43C)[C@@H]1CC[C@@H]2OC(=O)CCC1CCCC1 | 155 °C | – | – | – | – | – | – |
| O=[N+]([O-])c1ccc(Cl)cc1 | 83.5 °C | 242 °C | -5.31 | -1.66 | not readily biodegradable | – | – |
| CN(C)C | – | 2.87 °C | -3.98 | 3.21 | readily biodegradable | – | – |
| CCOc1cccc(N(CC)CC)c1 | – | 286 °C | – | – | – | – | – |
| CCOC(=S)SSC(=S)OCC | 30 °C | – | – | – | – | – | – |
| CC1(C)[C@H](C(=O)O[C@H](C#N)c2cccc(Oc3ccccc3)c2)[C@@H]1/C=C\C(=O)OC(C(F)(F)F)C(F)(F)F | 81.5 °C | – | – | -9.48 | – | – | – |
| CCCCCCn1c(=O)c2c(ncn2C)n(C)c1=O | 82.5 °C | – | – | – | – | – | – |
| Cc1ccncc1 | 3.66 °C | 145 °C | -5.22 | 0.761 | – | – | – |
| COc1ccn(C)c(=O)c1C#N | 202 °C | – | – | – | – | – | – |
| C=CC(=O)OCC(CC)CC | -70 °C | – | – | 0.23 | – | – | – |
| C1=COCCO1 | – | 94.1 °C | – | – | – | – | – |
| CCOC(=O)CCBr | – | 179 °C | – | – | – | – | – |
| CCCCCCCCCCOCCCCCCCCCC | – | – | – | – | readily biodegradable | – | – |
| FC(F)(F)C(F)(F)C(F)(F)C(F)(F)C(F)(F)C(F)(F)OC(F)(F)C(F)(F)C(F)(F)C(F)(F)C(F)(F)C(F)(F)F | -90 °C | 181 °C | – | – | – | – | – |
| COc1cc(C(C)=O)ccc1O | 115 °C | 297 °C | – | – | – | – | – |
| CN(C)C(=O)Nc1ccc(Cl)c(Cl)c1 | 158 °C | – | – | -7.16 | not readily biodegradable | 2.4 | – |
| COc1cccc2c1C(=O)c1c(O)c3c(c(O)c1C2=O)C[C@@](O)(C(=O)CO)C[C@@H]3O[C@H]1C[C@H](N)[C@H](O)[C@H](C)O1 | 230 °C | – | – | – | – | – | – |
| CCc1ccc(O)c(OC)c1 | -7 °C | 236 °C | – | – | – | – | – |
| OCC1CC23CCC1(CC2)CC3CO (centres undefined) | – | – | – | – | not readily biodegradable | – | – |
| Nc1cccc2cccc(N)c12 | 66.5 °C | – | – | – | not readily biodegradable | – | – |

| Compound | melting point | boiling point | log10 Henry constant (atm·m³/mol) | log10 vapour pressure (mmHg) | ready biodegradability | log10 Koc (L/kg) | logP |
| --- | --- | --- | --- | --- | --- | --- | --- |
| CCCCCCCCCCCCCCCCCCCO | 63.3 °C | – | – | – | – | – | – |
| O=C(OCC(O)CO)c1ccccc1Nc1ccnc2c(C(F)(F)F)cccc12 (centres undefined) | 180 °C | – | – | – | – | – | – |
| CC(Cl)c1ccccc1 (centres undefined) | – | – | – | -0.187 | – | – | – |
| Nc1ccc(Sc2ccc([N+](=O)[O-])cc2)cc1 | 144 °C | – | – | – | – | – | – |
| N#CC1CCCCC1 | 11 °C | – | – | – | – | – | – |
| FC(Cl)(Cl)C(F)(Cl)Cl | 26 °C | 93 °C | – | 1.7 | not readily biodegradable | – | – |
| CC1CC(=O)C(C)(C)C1 (centres undefined) | -40.6 °C | 158 °C | – | – | – | – | – |
| Cc1cccc([N+](=O)[O-])c1 | 15.5 °C | 232 °C | -5.03 | -0.687 | not readily biodegradable | – | – |
| NS(=O)(=O)c1cc2c(cc1Cl)NC(Cc1ccc(F)cc1)NS2(=O)=O (centres undefined) | 239 °C | – | – | – | – | – | – |
| ClCc1cccc(Cl)c1 | – | 216 °C | – | – | – | – | – |
| Oc1ccc(Cl)c2c1CCC2 | 92 °C | – | – | – | – | – | – |
| FC(F)OC(F)(F)C(F)Cl (centres undefined) | – | 56.5 °C | – | – | – | – | – |
| OCCNC(=S)C(=S)NCCO | 93.3 °C | – | – | – | – | – | – |
| O=[N+]([O-])c1cccc(Cl)c1 | 46 °C | 236 °C | -4.87 | -1.01 | not readily biodegradable | – | – |
| CCCCCO[N+](=O)[O-] | – | 157 °C | -2.78 | 0.705 | – | – | – |
| O=C(CBr)c1ccc(Br)cc1 | 111 °C | – | – | – | – | – | – |
| CC(C)COCCOCCO | – | 217 °C | – | – | – | – | – |
| COc1c(F)c(F)c(F)c(F)c1F | -37 °C | 138 °C | – | – | – | – | – |
| CC1CCCC(Br)C1 (centres undefined) | – | 181 °C | – | – | – | – | – |
| NCCc1cnc[nH]1 | 86 °C | – | – | – | – | – | – |
| COc1cc(C=O)cc(OC)c1O | 113 °C | – | – | – | readily biodegradable | – | – |

| Compound | melting point | boiling point | log10 Henry constant (atm·m³/mol) | log10 vapour pressure (mmHg) | ready biodegradability | log10 Koc (L/kg) | logP |
| --- | --- | --- | --- | --- | --- | --- | --- |
| CC[N+](CC)(CC)CCOC(=O)C(C1CCCC1)C1CCCC1.[Br-] | 186 °C | – | – | – | – | – | – |
| O=C(O)CCCCCCCBr | 38.5 °C | – | – | – | – | – | – |
| CC1Cc2ccccc2N1NC(=O)c1ccc(Cl)c(S(N)(=O)=O)c1 (centres undefined) | 161 °C | – | – | – | – | – | – |
| Cc1cc(N)c2ccccc2n1 | 169 °C | 333 °C | – | – | – | – | – |
| OCC(CO)(CO)CO | 260 °C | – | – | – | readily biodegradable | – | – |
| NC(=O)C1CCN(CCCN2c3ccccc3Sc3ccc(Cl)cc32)CC1 | 139 °C | – | – | – | – | – | – |
| Cc1ccc(C)nc1 | -16 °C | 157 °C | -5.06 | 0.526 | – | – | – |
| CC(C)(CCl)C(=O)O | 41.5 °C | – | – | – | – | – | – |
| O=C(c1ccccc1)c1ccc([N+](=O)[O-])cc1 | 138 °C | – | – | – | – | – | – |
| CC(C)(C)c1ccc(Cl)cc1 | – | 213 °C | – | – | – | – | – |
| COc1cccc(C(=O)O)c1OC | 123 °C | – | – | -5.73 | – | – | – |
| O=c1cc(-c2ccccc2)oc2ccccc12 | 100 °C | – | – | – | – | – | – |
| Cc1ccc(/N=C/N(C)/C=N/c2ccc(C)cc2C)c(C)c1 | 86 °C | – | -5.01 | -5.7 | – | 3 | – |
| CC(C)c1ccccc1C(=O)O | – | – | – | -3.46 | – | – | – |
| Oc1ccc(O)cc1 | 172 °C | 287 °C | – | -4.62 | readily biodegradable | – | – |
| CCCCCC=CCC=CCCCCCCCC(=O)O | – | – | – | – | readily biodegradable | – | – |
| Cc1cc(C(C)(C)C)ccc1O | 27.5 °C | 237 °C | – | -1.55 | – | – | – |
| O=NN1CCC[C@H]1c1cccnc1 | 47 °C | – | – | – | – | – | – |
| Brc1cc(Br)c(Oc2cc(Br)c(Br)cc2Br)cc1Br | – | – | – | – | – | – | 7.9 |
| CC(C)COC(OCC(C)C)OCC(C)C | – | 223 °C | – | – | – | – | – |
| Fc1cc(F)c(F)c(F)c1F | -47.3 °C | 85.7 °C | – | 1.83 | – | – | – |
